“And” between values parts separate entries of the source, which are not always exact repeats. Equal entries are not always repeated.
Columns and labels:
[1] = target: T1, unphosphorylated VEGF-R2Δ50 (FLVK) (Homo sapiens, UniProt P35968, DEL940-989/E990V); assay: VEGF-R2 coupled spectrophotometric assay, unphosphorylated construct (FLVK); format: biochemical; conditions: for inhibition at 0.05 µM: percent inhibition at 50 nM
T1 construct: VEGF-R2Δ50 contains residues 806-939 and 990-1171; made in house; host or cells: baculovirus/insect cell system
T1 sequence (P35968 with tags, fused parts or gaps DEL940-989/E990V limits assumed): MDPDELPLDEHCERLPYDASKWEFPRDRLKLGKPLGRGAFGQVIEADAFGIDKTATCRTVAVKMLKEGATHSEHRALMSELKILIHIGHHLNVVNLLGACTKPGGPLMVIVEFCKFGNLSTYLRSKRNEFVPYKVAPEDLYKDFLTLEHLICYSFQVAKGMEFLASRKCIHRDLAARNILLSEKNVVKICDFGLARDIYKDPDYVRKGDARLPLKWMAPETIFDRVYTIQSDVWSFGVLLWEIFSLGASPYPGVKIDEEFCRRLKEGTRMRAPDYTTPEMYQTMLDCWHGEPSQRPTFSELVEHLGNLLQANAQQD
Outline: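 Human VEGF-R2Δ50 cytosolic kinase (residues 806-939/990-1171, E990V), baculovirus-expressed, unphosphorylated form. PK/LDH-coupled NADH oxidation at 340 nm with 20 mM poly(E4Y1), 3 mM ATP, 60 mM MgCl2, 2 mM MnCl2, 200 mM HEPES pH 7.5, 5-40 nM enzyme; Ki fitted by Morrison equation.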

KDR (VEGFR2) = target: T2, KDR (VEGFR2) (Homo sapiens, UniProt P35968); assay: KDR (VEGFR2) phosphorylation in PAE-KDR cells assay; format: cell-based; conditions: PAE cells overexpressing human KDR, VEGF stimulated; read-out: PAE KDR autophos IC50
T2 construct: expressed in transfected cells; host or cells: porcine aorta endothelial (PAE) cells
T2 sequence (P35968 20-1356): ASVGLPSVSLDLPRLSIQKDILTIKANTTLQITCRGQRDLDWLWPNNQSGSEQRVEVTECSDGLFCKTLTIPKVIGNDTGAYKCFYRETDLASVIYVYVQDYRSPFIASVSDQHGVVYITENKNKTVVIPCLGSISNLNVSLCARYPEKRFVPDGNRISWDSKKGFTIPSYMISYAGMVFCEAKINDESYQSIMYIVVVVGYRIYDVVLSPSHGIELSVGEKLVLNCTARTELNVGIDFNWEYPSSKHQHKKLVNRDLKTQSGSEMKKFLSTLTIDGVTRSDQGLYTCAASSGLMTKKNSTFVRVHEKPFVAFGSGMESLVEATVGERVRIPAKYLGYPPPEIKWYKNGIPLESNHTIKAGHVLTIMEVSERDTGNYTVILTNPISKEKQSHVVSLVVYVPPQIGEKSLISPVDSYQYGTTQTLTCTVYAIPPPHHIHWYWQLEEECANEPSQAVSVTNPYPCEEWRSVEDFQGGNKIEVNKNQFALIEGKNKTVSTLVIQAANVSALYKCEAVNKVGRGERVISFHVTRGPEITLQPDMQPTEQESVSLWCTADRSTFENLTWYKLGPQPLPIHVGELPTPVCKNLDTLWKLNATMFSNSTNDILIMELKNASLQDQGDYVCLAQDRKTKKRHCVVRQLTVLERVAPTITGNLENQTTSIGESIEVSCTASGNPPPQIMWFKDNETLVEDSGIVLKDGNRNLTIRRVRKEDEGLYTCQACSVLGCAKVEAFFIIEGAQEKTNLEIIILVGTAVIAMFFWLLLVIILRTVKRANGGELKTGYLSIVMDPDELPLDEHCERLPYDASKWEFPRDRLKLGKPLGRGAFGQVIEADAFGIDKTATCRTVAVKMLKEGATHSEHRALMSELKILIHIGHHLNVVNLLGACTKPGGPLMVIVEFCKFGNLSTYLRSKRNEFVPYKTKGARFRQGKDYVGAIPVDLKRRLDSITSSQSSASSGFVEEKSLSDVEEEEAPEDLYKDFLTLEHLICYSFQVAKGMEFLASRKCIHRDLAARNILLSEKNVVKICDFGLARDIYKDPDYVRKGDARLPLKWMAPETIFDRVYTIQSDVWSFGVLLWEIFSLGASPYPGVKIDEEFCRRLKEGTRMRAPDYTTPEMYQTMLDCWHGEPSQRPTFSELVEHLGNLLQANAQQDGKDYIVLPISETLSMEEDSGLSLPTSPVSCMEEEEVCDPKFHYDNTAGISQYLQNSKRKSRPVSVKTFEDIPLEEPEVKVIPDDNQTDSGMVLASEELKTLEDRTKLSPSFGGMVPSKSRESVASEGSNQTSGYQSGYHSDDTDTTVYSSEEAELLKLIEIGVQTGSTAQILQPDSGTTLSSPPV
Procedure: This assay determines the ability of a test compound to inhibit the autophosphorylation of KDR in porcine aorta endothelial (PAE)-KDR cells. PAE cells that overexpress human KDR were used in this assay. The cells were cultured in Ham's F12 media supplemented with 10% fetal bovine serum (FBS) and 400 ug/mL G418. Thirty thousands cells were seeded into each well of a 96-well plate in 75 μL of growth media and allowed to attach for 6 hours at 37° C. Cells were then exposed to the starvation media (Ham's F12 media supplemented with 0.1% FBS) for 16 hours. After the starvation period was over, 10 μL of test agent in 5% DMSO in starvation media were added to the test wells and 10 μL of the vehicle (5% DMSO in starvation media) were added into the control wells. The final DMSO concentration in each well was 0.5%. Plates were incubated at 37° C. for 1 hour and the cells were then stimulated with 500 ng/ml VEGF (commercially available from R & D System) in the presence of 2 mM Na3VO4 for 8 minutes. The cells were washed once with 1 mm Na3VO4 in HBSS and lysed by adding 50 μL per well of lysis buffer. One hundred μL of dilution buffer were then added to each well and the diluted cell lysate was transferred to a 96-well goat ant-rabbit coated plate (commercially available from Pierce) which was pre-coated with Rabbit anti Human Anti-flk-1 C-20 antibody (commercially available from Santa Cruz). The plates were incubated at room temperature for 2 hours and washed seven times with 1% Tween 20 in PBS. HRP-PY20 (commercially available from Santa Cruz) was diluted and added to the plate for a 30-minute incubation. Plates were then washed again and TMB peroxidase substrate (commercially available from Kirkegaard & Perry) was added for a 10-minute incubation. One hundred μL of 0.09 N H2SO4 was added to each well of the 96-well plates to stop the reaction. Phosphorylation status was assessed by spectrophotometer reading at 450 nm. IC50 values were calculated by curve fitting using a four-parameter analysis.

PDGFRβ = target: T3, PDGFRβ (Homo sapiens, UniProt P09619); assay: PAE-PDGFRβ phosphorylation in PAE-PDGFRB cells assay; format: cell-based; conditions: PAE cells overexpressing human PDGFRβ, PDGF-BB stimulated; read-out: PAE PDGFR autophos IC50
T3 construct: expressed in transfected cells; host or cells: porcine aorta endothelial (PAE) cells
T3 sequence (P09619 33-1106): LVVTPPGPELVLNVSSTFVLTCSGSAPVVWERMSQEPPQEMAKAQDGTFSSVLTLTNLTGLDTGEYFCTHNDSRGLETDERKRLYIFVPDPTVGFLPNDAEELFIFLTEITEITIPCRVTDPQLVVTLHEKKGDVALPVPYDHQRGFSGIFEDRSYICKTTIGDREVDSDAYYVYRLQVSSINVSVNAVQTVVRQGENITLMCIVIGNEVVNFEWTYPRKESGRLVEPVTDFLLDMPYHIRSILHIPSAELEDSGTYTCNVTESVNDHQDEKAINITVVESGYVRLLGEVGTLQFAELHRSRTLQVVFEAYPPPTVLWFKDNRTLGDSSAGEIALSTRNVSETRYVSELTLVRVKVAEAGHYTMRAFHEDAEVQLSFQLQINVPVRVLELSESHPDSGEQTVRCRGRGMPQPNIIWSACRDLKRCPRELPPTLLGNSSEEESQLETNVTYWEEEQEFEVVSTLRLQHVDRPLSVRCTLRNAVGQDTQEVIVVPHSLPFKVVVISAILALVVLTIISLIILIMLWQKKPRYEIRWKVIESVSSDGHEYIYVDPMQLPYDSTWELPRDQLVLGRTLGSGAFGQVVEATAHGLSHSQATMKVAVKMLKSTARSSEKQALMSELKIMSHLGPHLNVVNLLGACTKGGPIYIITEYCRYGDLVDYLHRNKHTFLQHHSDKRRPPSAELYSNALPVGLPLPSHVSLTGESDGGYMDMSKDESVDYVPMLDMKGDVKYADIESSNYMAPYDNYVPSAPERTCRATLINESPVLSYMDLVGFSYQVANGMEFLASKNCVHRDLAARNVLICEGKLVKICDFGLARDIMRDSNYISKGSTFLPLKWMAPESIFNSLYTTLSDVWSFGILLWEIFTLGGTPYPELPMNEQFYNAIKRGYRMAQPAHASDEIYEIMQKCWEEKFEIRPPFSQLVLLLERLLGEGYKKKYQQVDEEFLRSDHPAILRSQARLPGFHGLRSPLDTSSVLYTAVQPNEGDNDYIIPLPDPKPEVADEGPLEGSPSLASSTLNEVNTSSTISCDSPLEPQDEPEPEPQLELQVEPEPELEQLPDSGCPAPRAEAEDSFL
Procedure: This assay determines the ability of a test compound to inhibit the autophosphorylation of PDGFRβ in porcine aorta endothelial (PAE)-PDGFRβ cells. PAE cells that overexpress human PDGFRβ were used in this assay. The cells were cultured in Ham's F12 media supplemented with 10% fetal bovine serum (FBS) and 400 ug/ml G418. Twenty thousands cells were seeded in each well of a 96-well plate in 50 μL of growth media and allowed to attach for 6 hours at 37° C. Cells were then exposed to the starvation media (Ham's F12 media supplemented with 0.1% FBS) for 16 hours. After the starvation period was over, 10 μL of test agent in 5% DMSO in starvation media were added to the test wells and 10 μL of the vehicle (5% DMSO in starvation media) were added into the control wells. The final DMSO concentration in each well was 0.5%. Plates were incubated at 37° C. for 1 hour and the cells were then stimulated with 1 μg/mL PDGF-BB (R & D System) in the presence of 2 mM Na3VO4 for 8 minutes. The cells were washed once with 1 mm Na3VO4 in HBSS and lysed by adding 50 μL per well of lysis buffer. One hundred μL of dilution buffer were then added to each well and the diluted cell lysate was transferred to a 96-well goat ant-rabbit coated plate (Pierce), which was pre-coated with Rabbit anti Human PDGFRβ antibody (Santa Cruz). The plates were incubated at room temperature for 2 hours and washed seven times with 1% Tween 20 in PBS. HRP-PY20 (Santa Cruz) was diluted and added to the plate for a 30-minute incubation. Plates were then washed again and TMB peroxidase substrate (Kirkegaard & Perry) was added for a 10-minute incubation. One hundred μL of 0.09 N H2SO4 was added into each well of the 96-well plate to stop the reaction. Phosphorylation status was assessed by spectrophotometer reading at 450 nm. IC50 values were calculated by curve fitting using a four-parameter analysis.

[2] = tested on: human umbilical vein endothelial cells (HUVEC); assay: HUVEC+VEGF proliferation assay; format: cell-based; conditions: Homo sapiens, HUVEC, 72 h, VEGF 6 ng/mL, MTT
Procedure: This assay determines the ability of a test compound to inhibit the growth factor-stimulated proliferation of human umbilical vein endothelial cells (“HUVEC”). HUVEC cells (passage 3-4, Clonetics, Corp.) were thawed into EGM2 culture medium (Clonetics Corp) in T75 flasks. Fresh EGM2 medium was added to the flasks 24 hours later. Four or five days later, cells were exposed to another culture medium (F12K medium supplemented with 10% fetal bovine serum (FBS), 60 μg/mL endothelial cell growth supplement (ECGS), and 0.1 mg/mL heparin). Exponentially-growing HUVEC cells were used in experiments thereafter. Ten to twelve thousand HUVEC cells were plated in 96-well dishes in 100 μl of rich, culture medium (described above). The cells were allowed to attach for 24 hours in this medium. The medium was then removed by aspiration and 105 μl of starvation media (F12K+1% FBS) was added to each well. After 24 hours, 15 μl of test agent dissolved in 1% DMSO in starvation medium or this vehicle alone was added into each treatment well; the final DMSO concentration was 0.1%. One hour later, 30 μl of VEGF (30 ng/mL) in starvation media was added to all wells except those containing untreated controls; the final VEGF concentration was 6 ng/mL. Cellular proliferation was quantified 72 hours later by MTT dye reduction, at which time cells were exposed for 4 hours MTT (Promega Corp.). Dye reduction was stopped by addition of a stop solution (Promega Corp.) and absorbance at 595 nm was determined on a 96-well spectrophotometer plate reader.

| Ki [1] [nM] | inhibition at 0.05 µM [1] [%] | IC50 (KDR (VEGFR2)) | IC50 (PDGFRβ) [nM] | Compound | IC50 [2] [nM] |
| --- | --- | --- | --- | --- | --- |
| 0.202 | 97 | 0.24 nM | – | CNC(=O)n1c(C)cc2cc(Oc3ccnc4cc(C(=O)N5C[C@H](OC)[C@@H](OC)C5)sc34)ccc21 [Example 8b, 5-[(2-{[(3S,4S)-3,4-Dimethoxypyrrolidin-1-yl]carbonyl}thieno[3,2-b]pyridin-7-yl)oxy]-2-dimethyl-1H-indole-1-carboxylic acid methylamide] | – |
| 0.105 | 99 | 0.24 nM | 26 | CCNC(=O)n1c(C)cc2cc(Oc3ccnc4cc(C(=O)N5CC[C@H](OC)C5)sc34)ccc21 [Example 9e, 5-[2-(3S-Methoxy-pyrrolidine-1-carbonyl)-thieno[3,2-b]pyridin-7-yloxy]-2-methyl-indole-1-carboxylic acid ethylamide] | – |
| 0.52 | 98 | 0.29 nM | 9.9 | CO[C@H]1CCN(C(=O)c2cc3nccc(Oc4ccc5c(cc(C)n5C(=O)NC5CC5)c4F)c3s2)C1 [Example 5h, 4-Fluoro-5-[2-(3S-methoxy-pyrrolidine-1-carbonyl)-thieno[3,2-b]pyridin-7-yloxy]-2-methyl-indole-1-carboxylic acid cyclopropylamide] | 0.28 |
| 0.647 | 99 | 0.952 nM | 21.2 | CNC(=O)n1c(C)c(Cl)c2c(F)c(Oc3ccnc4cc(C(=O)N5CC[C@H](OC)C5)sc34)ccc21 [Example 6b, 3-Chloro-4-fluoro-5-[2-(3S-methoxy-pyrrolidine-1-carbonyl)-thieno[3,2-b]pyridin-7-yloxy]-2-methyl-indole-1-carboxylic acid methylamide] | 1.46 |
| 0.475 | 98 | 0.26 nM | – | C#CCNC(=O)n1c(C)cc2cc(Oc3ccnc4cc(C(=O)N5C[C@H](OC)[C@@H](OC)C5)sc34)ccc21 [Example 4q, 5-[2-(3S,4S-Dimethoxy-pyrrolidine-1-carbonyl)-thieno[3,2-b]pyridin-7-yloxy]-2-methyl-indole-1-carboxylic acid prop-2-ynylamide] | 0.27 |
| 3.24 | 81 | 1.44 nM and 1.1 nM | 56 | CO[C@H]1CCN(C(=O)c2cc3nccc(Oc4ccc5c(c4)cc(C)n5C(=O)NCCO)c3s2)C1 [Example 9c, 5-[2-(3S-Methoxy-pyrrolidine-1-carbonyl)-thieno[3,2-b]pyridin-7-yloxy]-2-methyl-indole-1-carboxylic acid (2-hydroxy-ethyl)-amide] | – |
| 0.324 | 96 | 0.53 nM and 0.44 nM and 0.275 nM | 21.5 | Cc1cc2c(F)c(Oc3ccnc4cc(C(=O)N5CCC[C@H]5CO)sc34)ccc2n1C(=O)NC1CC1 [Example 5d, 4-Fluoro-5-[2-(2S-hydroxymethyl-pyrrolidine-1-carbonyl)-thieno[3,2-b]pyridin-7-yloxy]-2-methyl-indole-1-carboxylic acid cyclopropylamide] | 0.35 |
| 0.504 | 96 | 0.26 nM | 62 | C#CCNC(=O)n1c(C)cc2cc(Nc3ccnc4cc(C(=O)N5CCC[C@@H]5COC)sc34)ccc21 [Example 7d, 5-[2-(2R-Methoxymethyl-pyrrolidine-1-carbonyl)-thieno[3,2-b]pyridin-7-ylamino]-2-methyl-indole-1-carboxylic acid prop-2-ynylamide] | – |
| 1.11 | 60 | 2.7 nM and 6.9 nM | > 1000 | CNC(=O)n1c(C)cc2cc(Nc3ccnc4cc(C(=O)N5C[C@H](O)C[C@H]5C(C)(C)O)sc34)ccc21 [Example 3d, 5-{2-[(2S,4R)-4-Hydroxy-2-(1-hydroxy-1-methyl-ethyl)-pyrrolidine-1-carbonyl]-thieno[3,2-b]pyridin-7-ylamino}-2-methyl-indole-1-carboxylic acid methylamide] | 61.6 |
| 0.083 | 100 | 0.35 nM | 4.6 | C#CCNC(=O)n1c(C)cc2c(F)c(Oc3ccnc4cc(C(=O)N5CC[C@@H](O)C5)sc34)ccc21 [Example 5p, 4-Fluoro-5-[2-((R)-3-hydroxy-pyrrolidine-1-carbonyl)-thieno[3,2-b]pyridin-7-yloxy]-2-methyl-indole-1-carboxylic acid prop-2-ynylamide] | – |
| 0.095 | 100 | 0.178 nM | 9.9 | CNC(=O)n1c(C)cc2c(F)c(Oc3ccnc4cc(C(=O)N5CC[C@H](OC)C5)sc34)ccc21 [Example 5f, 4-Fluoro-5-[2-(3S-methoxy-pyrrolidine-1-carbonyl)-thieno[3,2-b]pyridin-7-yloxy]-2-methyl-indole-1-carboxylic acid methylamide] | 0.116 |
| 0.488 | 97 | 0.67 nM | 60 | CO[C@H]1CCN(C(=O)c2cc3nccc(Oc4ccc5c(c4)cc(C)n5C(=O)NCCCO)c3s2)C1 [Example 9b, 5-[2-(3S-Methoxy-pyrrolidine-1-carbonyl)-thieno[3,2-b]pyridin-7-yloxy]-2-methyl-indole-1-carboxylic acid (3-hydroxy-propyl)-amide] | 0.33 |
| 0.071 | 100 | 0.3 nM | 18.4 | CNC(=O)n1c(C)cc2c(F)c(Oc3ccnc4cc(-c5nc(C(C)(C)O)cs5)sc34)ccc21 [Example 3k, 4-Fluoro-5-{2-[4-(1-hydroxy-1-methyl-ethyl)-thiazol-2-yl]-thieno[3,2-b]pyridin-7-yloxy}-2-methyl-indole-1-carboxylic acid methylamide] | – |

Reference: patent US6833456B2, “Indolyl-urea derivatives of thienopyridines useful as antiangiogenic agents, and methods for their use” (Agouron Pharmaceuticals, Inc., priority 2002, dated 2004)
